We go through 24 compounds from patent US7125990B2, “Imidazolyl derivatives as corticotropin releasing factor inhibitors” (Bristol-Myers Squibb COmpany, priority 2001, dated 2006).

The experiment has as its target T1, CRF1 receptors (Homo sapiens, UniProt P34998).
T1 construct: endogenous in cells; host or cells: IMR-32 cells, transformed with 2.5 µM 5'-bromo-2'-deoxyuridine for 10 days; membrane preparation
T1 sequence (P34998 24-415): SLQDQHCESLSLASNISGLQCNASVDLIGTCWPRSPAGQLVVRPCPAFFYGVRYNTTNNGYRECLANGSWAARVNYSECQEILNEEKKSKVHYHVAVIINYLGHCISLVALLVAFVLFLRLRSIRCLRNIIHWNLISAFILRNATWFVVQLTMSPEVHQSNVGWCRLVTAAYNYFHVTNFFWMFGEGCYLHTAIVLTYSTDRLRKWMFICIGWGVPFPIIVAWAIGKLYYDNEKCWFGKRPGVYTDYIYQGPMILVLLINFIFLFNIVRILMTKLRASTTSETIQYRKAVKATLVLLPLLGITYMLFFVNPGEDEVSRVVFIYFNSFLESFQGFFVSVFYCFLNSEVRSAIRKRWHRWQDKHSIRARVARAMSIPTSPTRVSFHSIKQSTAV
The experiment in a line: CRF1 receptor radioligand binding assay ([125I]-oCRF competition, IMR-32 cell membranes). To be noted: IMR-32 cell membranes, [125I]-oCRF 100 pM; read-out: Ki (CRF-1R). The procedure:
CRF1 receptor antagonists, by occupying the same receptors, blocks the accessibility of the receptors to CRF, a hypothalamic factor mediating body's responses to physiological and psychological stress. The following radioligand binding assay examines the ability of the antagonists to bind the CRF1 receptors by assessing their ability to compete with binding of CRF to the receptors in cell membrane.
Tissue culture and membrane preparation. IMR-32 cells were grown at 37° C. in 5% CO2 as a monolayer in medium consisting of MEM supplemented with 10% heat-inactivated fetal bovine serum, 0.1 mM nonessential amino acids, 1 mM sodium pyruvate and 2 mM L-glutamine. […] After transformation, cells were rinsed twice with phosphate-buffered saline, and incubated for 10–15 min. at 4° C. in homogenization buffer consisting of 50 mM Tris (pH 7.2), 10 mM MgCl2 and 2 mM EGTA. Cells were transferred from plates to polypropylene tubes (16×100 mm), homogenized and centrifuged at 32,000×g for 15 min. Pellets were resuspended by homogenization in buffer and centrifuged at 32,000×g for 15 min. Pellets were resuspended in homogenization buffer then stored at −80° C. until needed.
Radioligand binding assays. […] The assay buffer consisted of 50 mM Tris (pH 7.2), 10 mM MgCl2, 0.5% BSA, 0.005% Triton X-100, 10 μg/mL aprotinin and 10 μg/mL leupeptin. Assays were stopped by addition of ice-cold wash buffer (50 mM Tris, pH 7.4 and 0.2% BSA). Filtration over glass fiber filters (Whatman GF/B) previously soaked in 50 mM Tris, pH 7.2 and 1% BSA was carried out using a Brandel cell harvester. Filters were washed with 10 mL of ice-cold wash buffer. Non-specific binding was defined with 10 μM oCRF. IC50 values for oCRF and test compounds were calculated by nonlinear regression using a one-site binding curve (GraphPad Prism).

As to `CCCN(Cc1c(C(F)(F)F)nc2n(-c3c(C)cc(C)cc3C)c(Cl)cn12)CC(F)(F)F` [Example 322, [6-Chloro-2-trifluoromethyl-7-(2,4,6-trimethyl-phenyl)-7H-imidazo[1,2-a]imidazol-3-ylmethyl]-propyl-(2,2,2-trifluoro-ethyl)-amine], the Ki is less than 10 nM.
Take `CCCN(Cc1cccc(F)c1)C(=O)c1c(CC)nc2n1CCN2c1c(C)cc(C)cc1C` [Example 26, 2-Ethyl-7-(2,4,6-trimethyl-phenyl)-6,7-dihydro-5H-imidazo[1,2-a]imidazole-3-carboxylic acid (3-fluoro-benzyl)-propyl-amide]: the inhibition constant (Ki) was less than 10000 nM.
Consider `C=CCN(CC=C)Cc1c(CC)nc2n(-c3c(C)cc(C)cc3C)c3ncccc3n12` [Example 251, Diallyl-[2-ethyl-8-(2,4,6-trimethyl-phenyl)-8H-1,3a,7,8-tetraaza-cyclopenta[α]inden-3-ylmethyl]-amine], for which the Ki was less than 1000 nM.
Take `CC(C)c1ccc(-n2c3ccccc3n3c(CN(CCc4ccccc4)CC(F)(F)F)c(C(F)(F)F)nc23)c(Br)c1` [Example 201, [8-(2-Bromo-4-isopropyl-phenyl)-2-trifluoromethyl-8H-1,3a,8-triaza-cyclopenta[α]inden-3-ylmethyl]-phenethyl-(2,2,2-trifluoro-ethyl)-amine]: the Ki is less than 10000 nM.
Consider `CCc1nc2n(c1C(=O)N(CCC(F)(F)F)CC1CC1)CCN2c1c(C)cc(C)cc1C` [Example 9, 2-Ethyl-7-(2,4,6-trimethyl-phenyl)-6,7-dihydro-5H-imidazo[1,2-a]imidazole-3-carboxylic acid cyclopropylmethyl-(3,3,3-trifluoro-propyl)-amide], for which the Ki was less than 100 nM.
For `CCCN(Cc1c(CC)nc2n(-c3c(C)cc(C)cc3C)c3ccc(F)cc3n12)CC1CC1` [Example 149, Cyclopropylmethyl-[2-ethyl-5-fluoro-8-(2,4,6-trimethyl-phenyl)-8H-1,3a,8-triaza-cyclopenta[α]inden-3-ylmethyl]-propyl-amine], the Ki is less than 1000 nM.
Regarding `CCc1nc2n(c1C(=O)N(CC1CC1)CC1CC1)CCN2c1c(C)cc(C)cc1C` [Example 8, 2-Ethyl-7-(2,4,6-trimethyl-phenyl)-6,7-dihydro-5H-imidazo[1,2-a]imidazole-3-carboxylic acid cyclopropylmethyl-(cyclopropylmethyl)-amide], the Ki was less than 100 nM.
Next, `Cc1cc(C)c(-n2c(Cl)cn3c(CN(CCc4ccccc4)CC(F)(F)F)c(C(F)(F)F)nc23)c(C)c1` [Example 324, [6-Chloro-2-trifluoromethyl-7-(2,4,6-trimethyl-phenyl)-7H-imidazo[1,2-a]imidazol-3-ylmethyl]-phenethyl-(2,2,2-trifluoro-ethyl)-amine]: less than 1000 nM; `Cc1cc(C)c(-n2c3ccccc3n3c(CN(CCc4ccccc4)CC(F)(F)F)c(C(F)(F)F)nc23)c(C)c1` [Example 171, Phenethyl-(2,2,2-trifluoro-ethyl)-[2-trifluoromethyl-8-(2,4,6-trimethyl-phenyl)-8H-1,3a,8-triaza-cyclopenta[α]inden-3-ylmethyl]-amine]: less than 1000 nM.
Regarding `CCN(Cc1c(C(F)(F)F)nc2n(-c3c(C)cc(C)cc3C)c(Cl)cn12)CC1CCC1` [Example 341, [6-Chloro-2-trifluoromethyl-7-(2,4,6-trimethyl-phenyl)-7H-imidazo[1,2-a]imidazol-3-ylmethyl]-cyclobutylmethyl-ethyl-amine], the Ki was less than 10 nM.
Turning to `CCCCN(CC)C(=O)c1c(CC)nc2n(-c3c(C)cc(C)cc3C)c(Cl)cn12` [Example 291, 6-Chloro-2-ethyl-7-(2,4,6-trimethylphenyl)-7H-imidazo[1,2-a]imidazole-3-carboxylic acid N-butyl-N-ethylamide], the inhibitory constant (Ki) is less than 100 nM.
In the case of `CCCN(CCC1CC1)Cc1c(C(F)(F)F)nc2n1CCCN2c1c(C)cc(C)cc1C` [Example 87, (2-Cyclopropyl-ethyl)-propyl-[2-trifluoromethyl-8-(2,4,6-trimethyl-phenyl)-5,6,7,8-tetrahydro-imidazo[1,2-a]pyrimidin-3-ylmethyl]-amine] it was less than 1000 nM; in that of `CCCN(Cc1c(C(F)(F)F)nc2n(-c3ccc(C(C)C)cc3Br)c3ccccc3n12)CC(F)(F)C(F)(F)F` [Example 205, [8-(2-Bromo-4-isopropyl-phenyl)-2-trifluoromethyl-8H-1,3a,8-triaza-cyclopenta[α]inden-3-ylmethyl]-(2,2,3,3,3-pentafluoro-propyl)-propyl-amine], less than 10000 nM.
With `CCCN(CCC)Cc1c(C(F)(F)F)nc2n(-c3c(C)cc(C)cc3C)c(Cl)cn12` [Example 344, [6-Chloro-2-trifluoromethyl-7-(2,4,6-trimethyl-phenyl)-7H-imidazo[1,2-a]imidazol-3-ylmethyl]-dipropyl-amine], the Ki was less than 100 nM.
Next, `CCCN(Cc1ccc(Cl)cc1)Cc1c(C(F)(F)F)nc2n1CCCN2c1c(C)cc(C)cc1C` [Example 94, (4-Chloro-benzyl)-propyl-[2-trifluoromethyl-8-(2,4,6-trimethyl-phenyl)-5,6,7,8-tetrahydro-imidazo[1,2-a]pyrimidin-3-ylmethyl]-amine]: less than 1000 nM; `CCCN(Cc1ccc(F)cc1)Cc1c(C(F)(F)F)nc2n1CCCN2c1c(C)cc(C)cc1C` [Example 92, (4-Fluoro-benzyl)-propyl-[2-trifluoromethyl-8-(2,4,6-trimethyl-phenyl)-5,6,7,8-tetrahydro-imidazo[1,2-a]pyrimidin-3-ylmethyl]-amine]: less than 1000 nM.
Take `FC(F)(F)c1nc2n(-c3ccc(Cl)cc3Cl)c3ccccc3n2c1CN(CC1CC1)CC1CC1` [Example 177, Bis-cyclopropylmethyl-[8-(2,4-dichloro-phenyl)-2-trifluoromethyl-8H-1,3a,8-triaza-cyclopenta[α]inden-3-ylmethyl]-amine]: the Ki was less than 1000 nM.
Take `Cc1cc(C)c(N2CCCn3c2nc(C(F)(F)F)c3CN(CCC(F)(F)F)Cc2ccc(F)cc2)c(Cl)c1` [Example 127, [8-(2-Chloro-4,6-dimethyl-phenyl)-2-trifluoromethyl-5,6,7,8-tetrahydro-imidazo[1,2-a]pyrimidin-3-ylmethyl]-(4-fluoro-benzyl)-(3,3,3-trifluoro-propyl)-amine]: the Ki was less than 1000 nM.
Next, `CCc1nc2n(-c3c(C)cc(C)cc3C)c3ncccc3n2c1CN(CC1CC1)CC1CC1` [Example 246, Bis-cyclopropylmethyl-[2-ethyl-8-(2,4,6-trimethyl-phenyl)-8H-1,3a,7,8-tetraaza-cyclopenta[α]inden-3-ylmethyl]-amine]: less than 100 nM; `CCCN(Cc1c(CC)nc2n(-c3c(C)cc(C)cc3C)c3ncccc3n12)CC1CC1` [Example 247, Cyclopropylmethyl-[2-ethyl-8-(2,4,6-trimethyl-phenyl)-8H-1,3a,7,8-tetraaza-cyclopenta[α]inden-3-ylmethyl]-propyl-amine]: less than 100 nM; `CCCN(CC1CC1)C(=O)c1c(C)nc2n1CC(=O)N2c1c(C)cc(C)cc1C` [Example 301, 2-Methyl-6-oxo-7-(2,4,6-trimethyl-phenyl)-6,7-dihydro-5H-imidazo[1,2-a]imidazole-3-carboxylic acid cyclopropylmethyl-propyl-amide]: less than 1000 nM.
Regarding `Cc1cc(C)c(N2CCCn3c2nc(C(F)(F)F)c3CN2CCOCC2)c(Cl)c1` [Example 97, 8-(2-Chloro-4,6-dimethyl-phenyl)-3-morpholin-4-ylmethyl-2-trifluoromethyl-5,6,7,8-tetrahydro-imidazo[1,2-a]pyrimidine], the Ki is less than 1000 nM.
For the compound `Cc1cc(C)c(N2CCCn3c2nc(C(F)(F)F)c3CN(CC2CC2)CC(F)(F)F)c(Cl)c1` [Example 135, [8-(2-Chloro-4,6-dimethyl-phenyl)-2-trifluoromethyl-5,6,7,8-tetrahydro-imidazo[1,2-a]pyrimidin-3-ylmethyl]-cyclopropylmethyl-(2,2,2-trifluoroethyl)-amine], the Ki was less than 100 nM.
Take `CCc1nc2n(c1C(=O)N(CC1CC1)CC(F)(F)C(F)(F)F)CCN2c1c(C)cc(C)cc1C` [Example 7, 2-Ethyl-7-(2,4,6-trimethyl-phenyl)-6,7-dihydro-5H-imidazo[1,2-a]imidazole-3-carboxylic acid cyclopropylmethyl-(3,3,3,2,2-pentafluoro-propyl)-amide]: the inhibitory constant (Ki) was less than 100 nM.
